Test system: 817829-284-R-J1-PDC complex spheroid viability
Experiment: Anticancer human tumor 817829-284-R-J1-PDC patient-derived colon adenocarcinoma cell line growth inhibition [POLQ]
Details: for IC50: curve of first compound; for viability, T/C: stronger effect = lower value
How it was run: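 PDC + HUVEC + MSC complex spheroids; POLQ inhibitors ± partner drugs; top conc. at/near clinical Cmax, else 10 microM (SN-38 1 microM), half-log dilutions; 37 degrees C, 5% CO2.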

[1] = second compound 0.0316 µM, first compound 0.0316 µM
[2] = second compound 0.0316 µM, first compound 0.1 µM
[3] = second compound 0.0316 µM, first compound 0.316 µM
[4] = second compound 0.0316 µM, first compound 1 µM
[5] = second compound 0.0316 µM, first compound 3.16 µM
[6] = second compound 0.0316 µM, first compound 10 µM
[7] = second compound 0.1 µM, first compound 0.0316 µM
[8] = second compound 0.1 µM, first compound 0.1 µM
[9] = second compound 0.1 µM, first compound 0.316 µM
[10] = second compound 0.1 µM, first compound 1 µM
[11] = second compound 0.1 µM, first compound 3.16 µM
[12] = second compound 0.1 µM, first compound 10 µM
[13] = second compound 0.316 µM, first compound 0.0316 µM
[14] = second compound 0.316 µM, first compound 0.1 µM
[15] = second compound 0.316 µM, first compound 0.316 µM
[16] = second compound 0.316 µM, first compound 1 µM
[17] = second compound 0.316 µM, first compound 3.16 µM
[18] = second compound 0.316 µM, first compound 10 µM
[19] = second compound 1 µM, first compound 0.0316 µM
[20] = second compound 1 µM, first compound 0.1 µM
[21] = second compound 1 µM, first compound 0.316 µM
[22] = second compound 1 µM, first compound 1 µM
[23] = second compound 1 µM, first compound 3.16 µM
[24] = second compound 1 µM, first compound 10 µM
[25] = second compound 3.16 µM, first compound 0.0316 µM
[26] = second compound 3.16 µM, first compound 0.1 µM
[27] = second compound 3.16 µM, first compound 0.316 µM
[28] = second compound 3.16 µM, first compound 1 µM
[29] = second compound 3.16 µM, first compound 3.16 µM
[30] = second compound 3.16 µM, first compound 10 µM
[31] = second compound 10 µM, first compound 0.0316 µM
[32] = second compound 10 µM, first compound 0.1 µM
[33] = second compound 10 µM, first compound 0.316 µM
[34] = second compound 10 µM, first compound 1 µM
[35] = second compound 10 µM, first compound 3.16 µM
[36] = second compound 10 µM, first compound 10 µM
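Also: spheroids exposed to compounds for 7 days.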
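For viability, T/C in this document: 100% = DMSO vehicle-treated spheroids.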

## C=CC(=O)N1CCN(c2nc(=O)n(-c3c(C)ccnc3C(C)C)c3nc(-c4c(O)cccc4F)c(F)cc23)C(C)C1 (centres undefined) + Nc1ccc(C#CCN(C(=O)Cc2ncc(C(F)(F)F)cc2C(F)(F)F)c2ccc(F)cc2)nn1
Second compound 0.0316 µM
  IC50: > 10 µM
Second compound 0.1 µM
  IC50: > 10 µM
Second compound 0.316 µM
  IC50: > 10 µM
Second compound 1 µM
  IC50: > 10 µM
Second compound 3.16 µM
  IC50: 9.67 µM
Second compound 10 µM
  IC50: > 10 µM
[1]
  viability, T/C: 77.4%
[2]
  viability, T/C: 103%
[3]
  viability, T/C: 97.2%
[4]
  viability, T/C: 93.5%
[5]
  viability, T/C: 91.7%
[6]
  viability, T/C: 51.3%
[7]
  viability, T/C: 95%
[8]
  viability, T/C: 110%
[9]
  viability, T/C: 101%
[10]
  viability, T/C: 99.8%
[11]
  viability, T/C: 84.2%
[12]
  viability, T/C: 60.5%
[13]
  viability, T/C: 104%
[14]
  viability, T/C: 91.3%
[15]
  viability, T/C: 96.6%
[16]
  viability, T/C: 98%
[17]
  viability, T/C: 93.5%
[18]
  viability, T/C: 61.6%
[19]
  viability, T/C: 102%
[20]
  viability, T/C: 119%
[21]
  viability, T/C: 112%
[22]
  viability, T/C: 97.8%
[23]
  viability, T/C: 94.5%
[24]
  viability, T/C: 52.9%
[25]
  viability, T/C: 96%
[26]
  viability, T/C: 89%
[27]
  viability, T/C: 102%
[28]
  viability, T/C: 90.8%
[29]
  viability, T/C: 76.2%
[30]
  viability, T/C: 49.2%
[31]
  viability, T/C: 114%
[32]
  viability, T/C: 84.1%
[33]
  viability, T/C: 90.6%
[34]
  viability, T/C: 90%
[35]
  viability, T/C: 79.8%
[36]
  viability, T/C: 51%

## CC(C)n1c(=O)n(C)c2cnc3cc(F)c(-c4ccc(OCCCN5CCCCC5)nc4)cc3c21 + Nc1ccc(C#CCN(C(=O)Cc2ncc(C(F)(F)F)cc2C(F)(F)F)c2ccc(F)cc2)nn1
Second compound 0.0316 µM
  IC50: > 10 µM
Second compound 0.1 µM
  IC50: 7.8 µM
Second compound 0.316 µM
  IC50: 8.1 µM
Second compound 1 µM
  IC50: 6.5 µM
Second compound 3.16 µM
  IC50: 9.72 µM
Second compound 10 µM
  IC50: 7.91 µM
[1]
  viability, T/C: 84.8%
[2]
  viability, T/C: 92.4%
[3]
  viability, T/C: 79.6%
[4]
  viability, T/C: 95.8%
[5]
  viability, T/C: 85.7%
[6]
  viability, T/C: 60.4%
[7]
  viability, T/C: 85.2%
[8]
  viability, T/C: 77.2%
[9]
  viability, T/C: 94.5%
[10]
  viability, T/C: 88.9%
[11]
  viability, T/C: 84.8%
[12]
  viability, T/C: 40.4%
[13]
  viability, T/C: 96.1%
[14]
  viability, T/C: 95%
[15]
  viability, T/C: 110%
[16]
  viability, T/C: 83.1%
[17]
  viability, T/C: 81.3%
[18]
  viability, T/C: 43.3%
[19]
  viability, T/C: 95%
[20]
  viability, T/C: 89.1%
[21]
  viability, T/C: 103%
[22]
  viability, T/C: 87.7%
[23]
  viability, T/C: 76%
[24]
  viability, T/C: 34.7%
[25]
  viability, T/C: 81.8%
[26]
  viability, T/C: 86.2%
[27]
  viability, T/C: 105%
[28]
  viability, T/C: 94.5%
[29]
  viability, T/C: 92.8%
[30]
  viability, T/C: 48.9%
[31]
  viability, T/C: 81.7%
[32]
  viability, T/C: 96%
[33]
  viability, T/C: 106%
[34]
  viability, T/C: 76.3%
[35]
  viability, T/C: 82.2%
[36]
  viability, T/C: 42%
